Source: patent publication US4065356A, “Production of antibiotic FR-02A (efrotomycin) by streptomyces lactamdurans” (priority 1977, dated 1977)
Where a name gives a salt, the structure may show the parent alone.

Test: solubility
Type: physicochemical

Row | Structure (SMILES) | solubility in water-immiscible organic solvents (water-immiscible organic solvents) | solubility in alcohol and chloroform (ammonium salt, alcohol and chloroform) | solubility in water (ammonium salt, water at pH 7.0 or higher)
1 | CO[C@@]1(NC(=O)CCC[C@@H](N)C(=O)O)C(=O)N2C(C(=O)O)=C(COC(N)=O)CS[C@@H]21 [Cephamycin C, reference compound] | virtually insoluble |  | 
2 | CC=CC=CC1OC(O)(C(CC)C(=O)NCC=CC=C(C)C(OC)C(C)C2OC(C=CC=CC=C(C)C(=O)c3c(O)ccn(C)c3=O)C(O)C2O)C(O)C(OC2OC(C)C(OC3OC(C)C(OC)C(O)C3OC)C(OC)C2O)C1(C)C (stereo not drawn) [FR-02A as the ammonium salt] |  | soluble | moderately soluble
